Counter-ions that a name gives are not always drawn. Like-named read-outs stand apart in the source and are kept apart here.
Columns and labels:
HO-2 (rat brain) = biological target: T1, HO-2 (rat brain) (Rattus norvegicus, UniProt P23711); assay: HO enzymatic activity in rat brain microsomal fraction (CO formed from methemalbumin, gas chromatography); assay type: biochemical
T1 construct: brain microsomes were used as a source of HO-2; from tissue; host or cells: brain microsomal fraction of adult male Sprague-Dawley rats
T1 sequence (P23711 1-315): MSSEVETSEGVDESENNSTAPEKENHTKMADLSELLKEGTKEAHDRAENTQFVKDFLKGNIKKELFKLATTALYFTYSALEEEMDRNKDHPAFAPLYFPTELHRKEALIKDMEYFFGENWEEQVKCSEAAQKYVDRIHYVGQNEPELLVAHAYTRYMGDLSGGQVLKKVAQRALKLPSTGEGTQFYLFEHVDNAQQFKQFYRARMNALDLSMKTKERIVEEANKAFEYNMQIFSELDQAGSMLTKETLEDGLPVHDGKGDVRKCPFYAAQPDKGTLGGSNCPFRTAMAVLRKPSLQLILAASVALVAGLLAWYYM

HO-1 (rat spleen) = biological target: T2, HO-1 (rat spleen) (Rattus norvegicus, UniProt P06762); assay: HO enzymatic activity in rat spleen microsomal fraction (CO formed from methemalbumin, gas chromatography); assay type: biochemical
T2 construct: Spleen microsomes were used as a source of HO-1; from tissue; host or cells: spleen microsomal fraction of adult male Sprague-Dawley rats
T2 sequence (P06762 1-289): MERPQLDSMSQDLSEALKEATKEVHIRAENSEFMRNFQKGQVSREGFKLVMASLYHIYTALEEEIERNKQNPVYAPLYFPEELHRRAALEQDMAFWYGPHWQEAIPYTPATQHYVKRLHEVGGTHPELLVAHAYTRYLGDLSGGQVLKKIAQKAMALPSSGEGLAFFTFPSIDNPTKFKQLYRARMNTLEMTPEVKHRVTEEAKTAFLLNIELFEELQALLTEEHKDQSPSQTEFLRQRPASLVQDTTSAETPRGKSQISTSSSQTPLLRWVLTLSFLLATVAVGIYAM

[1] = rat brain microsomes, average ± standard deviation of replicate experiments, read-out: IC50 HO-2 (rat brain)/μM
[2] = rat spleen microsomes, average ± standard deviation of replicate experiments, read-out: IC50 HO-1 (rat spleen)/μM
[3] = rat brain microsomes, average ± standard deviation of replicate experiments
[4] = rat spleen microsomes, average ± standard deviation of replicate experiments

Row | SMILES | IC50 (HO-2 (rat brain); [1]) [µM] | IC50 (HO-1 (rat spleen); [2]) [µM] | also measured
1 | Fc1ccc(COC(Cn2ccnc2)c2ccc(CCc3ccccc3)cc2)cc1 (racemic) [(±)-1-[2-(4-fluoro-benzyloxy)-2-(4-phenethyl-phenyl)-ethyl]-1H-imidazole] | > 100 | ~7 | –
2 | c1ccc2c(CCn3ccnc3)c[nH]c2c1 [3-[2-(1H-Imidazol-1-yl)-ethyl]-1H-indole hydrochloride] | > 100 | 40 ± 7 | –
3 | [O-][S+](CCCCn1ccnc1)c1ccccc1 (centres unmarked) [1-(4-benzenesulfinyl-butyl)-1H-imidazole hydrochloride] | 31 ± 5 | 18.44 ± 0.04 | –
4 | Cl.c1cn(CC2OCCO2)cn1 [1-((1,3-Dioxolan-2-yl)methyl)-1H-imidazole hydrochloride] | – | – | IC50 HO-2 (rat brain)/μM (HO-2 (rat brain); [3]): Inactive; IC50 HO-1 (rat spleen)/μM (HO-1 (rat spleen); [4]): Inactive
5 | Oc1ccc(OCC2CO[C@@](CCc3ccc(Cl)cc3)(Cn3ccnc3)O2)cc1 (stereo in doubt) [(2R,4S)-2-[2-(4-chlorophenyl)ethyl]-2-[(1H-imidazol-1-yl)methyl]-4-[(4-hydroxyphenyloxy)meth-yl]-1,3-dioxolane hydrochloride] | 7.1 ± 0.7 | 1.8 ± 0.5 | –
6 | Cc1ccc(S(=O)(=O)OC[C@@H]2CO[C@@](CCc3ccc(Cl)cc3)(Cn3ccnc3)O2)cc1 [(2R,4S)-2-[2-(4-chlorophenyl)ethyl]-2-[(1H-imidazol-1-yl)methyl]-4-[(p-toluenesulfonyloxy)meth-yl]-1,3-dioxolane] | – | – | IC50 (HO-2 (rat brain)): 3 ± 1 µM; IC50 (HO-1 (rat spleen)): 6 ± 2 µM
7 | c1ccc(CCn2ccnc2)cc1 [1-Phenethyl-1H-imidazole] | > 100 | 72 ± 11 | –
8 | Brc1ccc(CNCc2cccnc2)cc1 | > 100 | > 100 | –
9 | Clc1ccc(CC[C@@]2(Cn3ccnc3)OC[C@@H](CSc3ccncc3)O2)cc1 [(2R,4S)-2-[2-(4-chlorophenyl)ethyl]-2-[(1H-imidazol-1-yl)methyl]-4-[{(4-pyridinyl)thio}methyl]-1,3-dioxolane dihydrochloride] | 69 ± 8 | 25 ± 5 | –
10 | OC(CCc1ccccc1)Cn1ccnn1 (racemic) [(±)-4-phenyl-1-[1,2,3]triazol-1-yl-butan-2-ol hydrochloride] | > 100 | 44 ± 1 | –
11 | c1cn(Cc2ccc(Cn3ccnc3)cc2)cn1 [1-(4-(1H-Imidazol-1-ylmethyl)benzyl)-1H-imidazole dihydrochloride] | > 100 | 86 ± 30 | –
12 | [N-]=[N+]=NCC(=O)c1ccc(Br)cc1 | > 100 | > 100 | –
13 | CCC(=O)Cn1ccnc1 [1-(1H-Imidazol-1-yl)-butan-2-one hydrochloride] | > 100 | > 100 | –
14 | O=C(Cn1ccnc1)c1ccc2c(c1)OCCO2 [1-(2,3-dihydro-benzo[1,4]dioxin-6-yl)-2-imidazol-1-yl-ethanone hydrochloride] | > 100 | 73 ± 10 | –
15 | O=C(CCc1ccccc1)Cn1cncc1Br [1-(5-Bromo-1H-imidazol-1-yl)-4-phenyl-2-butanone] | > 100 | 22 ± 2 | –
16 | Clc1ccc(CC[C@@]2(Cn3ccnc3)OCC(COc3ccccc3)O2)cc1 (stereo in doubt) [(2R,4S)-1-{2-[2-(4-chloro-phenyl)-ethyl]-4-phenoxymethyl-[1,3]dioxolan-2-ylmethyl}-1H-imidazole hydrochloride] | 1.6 ± 0.3 | 0.59 ± 0.04 | –
17 | Clc1ccc(CC[C@@]2(Cn3ccnc3)OC[C@@H](CSc3cccc(Br)c3)O2)cc1 [(2R,4S)-1-{4-(3-bromo-phenylsulfanylmethyl)-2-[2-(4-chloro-phenyl)-ethyl]-[1,3]dioxolan-2-ylmethyl}-1H-imidazole hydrochloride] | 22 ± 9 | 5 ± 2 | –
18 | Clc1ccc(CC[C@@]2(Cn3ccnc3)OC[C@@H](Cn3ccnc3)O2)cc1 [(2R,4R)-2-[2-(4-chlorophenyl)ethyl]-2-[(1H-imidazol-1-yl)methyl]-4-[(1H-imidazol-1-yl)methyl]-1,3-dioxolane dihydrochloride] | 26 ± 3 | 10 ± 6 | –
19 | O=C(Cn1cncn1)c1ccc2c(c1)CCCC2 [1-(5,6,7,8-tetrahydro-naphthalen-2-yl)-2-[1,2,4]triazol-1-yl-ethanone] | 4 ± 1 | 0.24 ± 0.04 | –
20 | CC(=O)Cn1ccnc1 [1-(1H-Imidazol-1-yl)-propan-2-one] | – | – | IC50 HO-2 (rat brain)/μM (HO-2 (rat brain); [3]): Not Active; IC50 HO-1 (rat spleen)/μM (HO-1 (rat spleen); [4]): Not Active
21 | Clc1ccc(C2(Cn3cncn3)OCCO2)cc1 [1-[2-(4-chloro-phenyl)-[1,3]dioxolan-2-ylmethyl]-1H-[1,2,4]triazole] | > 100 | 68.7 ± 0.6 | –
22 | CSc1nnn(CC(=O)CCc2ccccc2)n1 [1-(5-Methylsulfanyl-tetrazol-2-yl)-4-phenyl-butan-2-one] | > 100 | > 100 | –

Row | SMILES | IC50 (HO-2 (rat brain); [1]) [µM] | IC50 (HO-1 (rat spleen); [2]) [µM] | also measured
23 | c1cn(CCCCc2ccc(CCCCn3ccnc3)cc2)cn1 [1,4-bis[(4-1H-imidazol-1-yl)butyl]benzene dihydrochloride] | 8 ± 2 | 0.4 ± 0.1 | –
24 | O=C(CCc1ccc(I)cc1)Cn1ccnc1 [4-(4-iodophenyl)-1-(1H-imidazol-1-yl)butan-2-one hydrochloride] | 1.8 ± 0.7 | 0.11 ± 0.06 | –
25 | c1ccc(CCCCCn2ccnc2)cc1 [1-(5-phenyl-pentyl)-1H-imidazole hydrochloride] | 20 ± 15 | 2.8 ± 0.5 | –
26 | N#Cc1ccc(OCC2CO[C@@](CCc3ccc(Cl)cc3)(Cn3ccnc3)O2)cc1 (stereo in doubt) [(2R,4S)-4-{2-[2-(4-chlorophenyl)ethyl]-2-imidazol-1-ylmethyl-[1,3]dioxolan-4-ylmethoxy}-benzonitrile hydrochloride] | 1.7 ± 0.2 | 0.67 ± 0.02 | –
27 | CC(O)C(Cc1ccc(Cl)cc1)n1ccnc1 (racemic) [(±)-4-(4-chlorophenyl)-3-imidazol-1-yl-butan-2-ol hydrochloride] | – | – | IC50 (HO-2 (rat brain)): > 100 µM; IC50 (HO-1 (rat spleen)): 40 ± 2 µM
28 | COC(=O)Nc1nc2cc(C(=O)c3ccc(F)cc3)ccc2[nH]1 [Flubendazol, reference compound] | > 100 | > 100 | –
29 | c1ccc(CCC2(Cn3ccnc3)OCCO2)cc1 [2-[2-phenylethyl]-2-[(1H-imidazol-1-yl)methyl]-1,3-dioxolane hydrochloride] | > 100 | 0.7 ± 0.4 | –
30 | c1ccc(OCCn2ccnc2)cc1 [1-(2-phenoxy-ethyl)-1H-imidazole hydrochloride] | > 100 | 61 ± 29 | –
31 | Fc1ccc(-c2ccno2)cc1 | > 100 | > 100 | –
32 | COC(=O)Nc1nc2ccc(Sc3ccccc3)cc2[nH]1 [Fenbendazol, reference compound] | > 100 | > 100 | –
33 | OC(Cn1ccnc1)c1ccc(Cl)cc1 (racemic) [(±)-1-(4-chloro-phenyl)-2-imidazol-1-yl-ethanol hydrochloride] | 16 ± 8 | 1.19 ± 0.03 | –
34 | FC(F)(F)c1ccc(CCCCn2ccnc2)cc1 [1-[4-(4-(Trifluoromethyl)phenyl)butyl]-1H-imidazole hydrochloride] | > 100 | 0.38 ± 0.09 | –
35 | CCOC(=O)N1CCC(Nc2nc3ccccc3n2Cc2ccc(F)cc2)CC1 | > 100 | > 100 | –
36 | c1ccc(CCCCn2ccnc2)cc1 [1-(4-phenyl-butyl)-1H-imidazole hydrochloride] | > 100 | 3.5 ± 0.9 | –
37 | O=C(CCc1ccc(O)cc1)Cn1ccnc1 [4-(4-Hydroxyphenyl)-1-(1H-imidazol-1-yl)butan-2-one hydrochloride] | > 100 | > 100 | –
38 | Clc1ccc(CC[C@]2(Cn3ccnc3)OC[C@@H](CSc3ccc4ccccc4c3)O2)cc1 [(2S,4S)-2-[2-(4-chlorophenyl)ethyl]-2-[(1H-imidazol-1-yl)methyl]-4-[{(2-naphthyl)thio}methyl]-1,3-dioxolane hydrochloride] | 62 ± 7 | 14 ± 2 | –
39 | c1ccc2[nH]c(CN3CCCC3)nc2c1 | > 100 | > 100 | –
40 | O=C(Cn1ccnc1)c1ccc(I)cc1 [2-imidazol-1-yl-1-(4-iodo-phenyl)ethanone] | 25 ± 5 | 4 ± 1 | –
41 | O=C(Cn1cncn1)c1ccc(Br)cc1 [1-(4-Bromo-phenyl)-2-[1,2,4]triazol-1-yl-ethanone] | 50 ± 24 | 2.7 ± 0.5 | –
42 | O=[N+]([O-])c1ccc(SC[C@@H]2CO[C@@](CCc3ccc(Cl)cc3)(Cn3ccnc3)O2)cc1 [(2R,4S)-2-[2-(4-chlorophenyl)ethyl]-2-[(1H-imidazol-1-yl)methyl]-4-[{(4-nitrophenyl)thio}meth-yl]-1,3-dioxolane hydrochloride] | 19 ± 2 | 6 ± 2 | –
43 | Clc1ccc(CC[C@@]2(Cn3ccnc3)OC[C@@H](CSc3ccc(Br)cc3)O2)cc1 [(2R,4S)-2-[2-(4-chlorophenyl)ethyl]-2-[(1H-imidazol-1-yl)methyl]-4-[{(4-bromophenyl)thio}meth-yl]-1,3-dioxolane hydrochloride] | 2.4 ± 0.1 | 2.1 ± 0.9 | –
